Entries after “also recorded” stand apart in the source; their conditions may differ.
Columns and labels:
αS [1] = target: T1, αS (Homo sapiens, UniProt P37840); conditions: in vitro; cited from earlier work
[2] = Preclinical studies of oral squalamine (ENT-01) in rats; assay type: in vivo; conditions: rat, oral dosing of radioactive ENT-01, portal blood concentrations
C. elegans αS model = conditions: cited from earlier work; for formation of αS aggregates: C. elegans model of PD in vivo
patients with PD [3] = assay: CNS symptoms in Stage 2 (UPDRS, MMSE, PDHQ, BDI-II); assay type: in vivo, human; conditions: during treatment; 5 patients with hallucinations and 1 with delusions at baseline
Text: Exploratory end-points, in addition to constipation, included for example, (i) depression assessed using the Beck Depression Inventory (BDI-II) (Steer et al. 2000) and Unified Parkinson's Disease Rating Scale (UPDRS); (ii) cognition assessed using the Mini Mental State Examination (MMSE) (Palsteia et al. 2018), Unified Parkinson's Disease Rating Scale (UPDRS), and Trail Making Test (TMT); (iii) sleep and REM-behavior disorder (RBD) using a daily sleep diary, I-Button Temperature Assessment, a REM sleep behavior disorder (RBD) questionnaire (RBDQ) (Stiasny-Kolster et al. 2007), and the UPDRS; (iv) hallucinations assessed using the PD hallucinations questionnaire (PDHQ) (Papapetropoulos et al. 2008), the UPDRS, and direct questioning; (v) fatigue using the Parkinson's Disease Fatigue Scale (PFS-16) and the UPDRS; (vi) motor functions using the UPDRS; and (vii) non-motor functions using the UPDRS.
(§1) Assessments were made at baseline and at the end of the fixed dose and washout periods. Circadian system status was evaluated by continuously monitoring wrist skin temperature (Thermochron iButton DS1921H; Maxim, Dallas) following published procedures (Sarabia et al. 2008).
An exploratory analysis was done with respect to the sleep data, the body temperature data, mood, fatigue, hallucinations, cognition and other motor and non-motor symptoms of PD. […]

patients with PD [4] = assay: Circadian rhythm of wrist skin temperature (I-Button); assay type: in vivo, human; conditions: fixed dose vs baseline, 12 evaluable patients
Experimental: (6) I-Button Temperature Assessment. The I-Button is a small, rugged self-sufficient system that measures temperature and records the results in a protected memory section. The Thermochron I-Button DS1921H (Maxim Integrated, Dallas, Tex.) was used for skin temperature measurement. I-Buttons were programmed to sample every 10 mins., and attached to a double-sided cotton sport wrist band using Velcro, with the sensor face of the I-Button placed over the inside of the wrist, on the radial artery of the dominant hand. Subjects removed and replaced the data logger when necessary (i.e., to have a bath or shower). […] From the collected data, the mesor, amplitude, acrophase (time of peak temperature), Rayleight test (an index of interdaily stability), mean waveforms are calculated.);
as §1
Circadian rhythm of skin temperature was evaluable in 12 patients (i.e., those who had recordings that extended from baseline through washout). Circadian system functionality was evaluated by continuously monitoring wrist skin temperature using a temperature sensor (Thermochron iButton DS1921H; Maxim, Dallas, Tex.) (Sarabia et al. 2008). […]

[5] = Safety and adverse event (AE) profile, Phase 2 trial of oral squalamine (ENT-01); assay type: in vivo, human
Experimental: (§2) Tolerability limits included diarrhea or vomiting.
(§3) In Stage 2, 34 patients were evaluated.

Solubility in water = assay type: physicochemical; conditions: phosphate salt
[6] = system: patients with PD and constipation; assay: Effect on bowel function (prokinetic response, stool diary indices), Phase 2 trial; assay type: in vivo, human; conditions: patients with baseline ≥1 CSBM/week
Experimental: Following successful screening, all subjects underwent a 14-day run-in period where the degree of constipation was assessed through a validated daily log (Zinsmeister et al. 2013) establishing baseline CSBMs/week. Subjects with an average of <3 CSBMs/week proceeded to dosing.
as §2, §3
The primary efficacy outcome variable was whether or not a subject was a “success” or “failure”. This is an endpoint based on subject diary entries for the “fixed dose” period prior to the endpoint assessment defined as average complete stool frequency increase by 1 or more over baseline, or 3 or more complete spontaneous stools/week. The subject was deemed a “success” if s/he met one or more of the criteria listed above, otherwise the subject was deemed a “failure”. The primary analysis was based on all subjects with a baseline assessment and an assessment at the end of the “fixed-dose” period and was a comparison of the proportion of successes with 0.10 (the null hypothesis corresponding to no treatment effect).

αS [7] = target: T1, αS; conditions: in vitro; cited from earlier work; remark: listed apart in the source
[8] = system: gastrointestinal motility; conditions: prior studies; cited from earlier work
mouse models of PD = mouse models of PD (constipation due to overexpression of human αS); cited from earlier work
[9] = following systemic administration, mice, into the duodenum through the biliary tract; cited from earlier work
[10] = dilactate salt, single and repeat intravenous administration, alone or in combination; cited from earlier work
[11] = system: IPANs (intrinsic primary afferent neuron); conditions: perfusion through the lumen of isolated bowel segment from the PD mouse model; cited from earlier work
[12] = Stage 2, 34 dosed, unrelated to ENT-01

## CC(C)[C@@H](CC[C@@H](C)[C@H]1CC[C@H]2[C@@H]3[C@H](O)C[C@H]4C[C@@H](NCCCNCCCCN)CC[C@]4(C)[C@H]3CC[C@]12C)OS(=O)(=O)O (single isomer, unassigned) [squalamine (ENT-01)]
αS [1]
  formation of αS aggregates: inhibit the formation of aggregates of αS
[2]
  absorption from the intestine: low
C. elegans αS model
  formation of αS aggregates: inhibit the formation of aggregates of αS
Patients with PD [3]
  hallucinations and delusions improved or disappeared: 5 of 6
Patients with PD [4]
  markers of circadian function (IS, RA, CFI, IV) of wrist skin temperature rhythm: improved all markers of healthy circadian function
[5]; [12]
  Blood in urine, Mild: 0 n
  Loss of appetite, Mild: 0 n
[5]; Stage 2, colonic diverticulosis, polyp, patient on aspirin, Plavix and naproxen, unrelated to ENT-01
  Lower GI bleed, Severe: 1 n
[5]; both stages, 1/44 patients
  patients with worsening of hemorrhoids: 2.2%
[5]; both stages, 2/44 patients
  patients with worsening of acid reflux: 4.5%
[5]; both stages, 3/44 patients
  patients with flatulence: 6.8%
  patients with vomiting: 6.8%
[5]; both stages, 8/44 patients
  patients with dizziness: 18%
[5]; both stages, 11/44 patients
  patients with abdominal pain: 32%
Solubility in water; neutral pH
  solubility in water: weakly soluble in water
Solubility in water; pH<3.5 (the pH of gastric fluid)
  dissolution in water: readily dissolves
[6]
  mean dose required for a bowel (prokinetic) response: 120 mg
αS [7]
  displacement of αS from membranes: displace αS from membranes

## CC(C)[C@@H](CC[C@@H](C)[C@H]1CC[C@H]2[C@@H]3[C@H](O)C[C@H]4C[C@@H](NCCCNCCCCN)CC[C@]4(C)[C@H]3CC[C@]12C)OS(=O)(=O)O [squalamine]
αS [1]
  formation of αS aggregates: inhibits the formation of αS aggregates
[8]
  gastrointestinal motility after intravenous administration: not associated with increased gastrointestinal motility
Mouse models of PD
  effect on gastrointestinal motility: stimulates gastro-intestinal motility; also recorded: restores gastrointestinal motility; also recorded: reverse gastrointestinal dysmotility
C. elegans αS model
  formation of αS aggregates: inhibits the formation of αS aggregates
C. elegans αS model; C. elegans αS model
  muscle paralysis / motor dysfunction: reverses motor dysfunction; also recorded: complete reversal of muscle paralysis
[9]
  clearance and excretion: cleared by the liver and excreted as the intact molecule
[10]
  well tolerated dose: at least 300 mg/m^2
[11]
  effect on IPANs: excitation of IPANs

Source: patent US20200038417A1, “METHODS AND COMPOSITIONS FOR TREATING COGNITIVE IMPAIRMENT” (Enterin, Inc., priority 2018, published 2020)
